Several values for one entry are separate records, joined by “and”; a condition that tells them apart may be missing. Equal values may be shown once. Toxic doses and inconclusive results are not listed.
Test system: BDF1 mice, B16 melanoma ip, median survival T/C
Experiment: NCI In Vivo Anticancer Drug Screen. Data for tumor model B16 Melanoma (intraperitoneal) in B6D2F1 (BDF1) mice
Details: endpoint: median survival time, higher = longer survival
Procedure, shortened: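 Mice with transplantable tumors; drug vs vehicle groups; endpoint survival or tumor size; value = T/C.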

[1] = dose: 6.25 mg/kg/injection, schedule: Q01DX009 (ip), vehicle: Klucel (hydroxypropylcellulose) (HPC)
[2] = dose: 12.5 mg/kg/injection, schedule: Q01DX009 (ip), vehicle: Klucel (hydroxypropylcellulose) (HPC)
[3] = dose: 50.0 mg/kg/injection, schedule: Q01DX009 (ip), vehicle: Klucel (hydroxypropylcellulose) (HPC)
[4] = dose: 25.0 mg/kg/injection, schedule: Q01DX009 (ip), vehicle: Klucel (hydroxypropylcellulose) (HPC)
[5] = dose: 25.0 mg/kg/injection, schedule: Q01DX009 (ip), vehicle: saline with Tween-80
[6] = dose: 50.0 mg/kg/injection, schedule: Q01DX009 (ip), vehicle: saline with Tween-80
[7] = dose: 100.0 mg/kg/injection, schedule: Q01DX009 (ip), vehicle: saline with Tween-80
[8] = dose: 100.0 mg/kg/injection, schedule: Q01DX009 (ip), vehicle: Klucel (hydroxypropylcellulose) (HPC)
[9] = dose: 200.0 mg/kg/injection, schedule: Q01DX009 (ip), vehicle: Klucel (hydroxypropylcellulose) (HPC)
[10] = dose: 400.0 mg/kg/injection, schedule: Q01DX009 (ip), vehicle: Klucel (hydroxypropylcellulose) (HPC)
[11] = dose: 1.0 mg/kg/injection, schedule: Q01DX009 (ip), vehicle: saline
[12] = dose: 2.0 mg/kg/injection, schedule: Q01DX009 (ip), vehicle: saline
[13] = dose: 100.0 mg/kg/injection, schedule: Q01DX009 (ip), vehicle: saline
[14] = dose: 200.0 mg/kg/injection, schedule: Q01DX009 (ip), vehicle: saline
[15] = dose: 400.0 mg/kg/injection, schedule: Q01DX009 (ip), vehicle: saline

In the case of `CCCC(=O)OCc1cc(=O)n(C)c2c3c4c(cc12)c(C)cc(=O)n4CO3`, the T/C (dose: 3.12 mg/kg/injection, schedule: Q01DX009 (ip), vehicle: Klucel (hydroxypropylcellulose) (HPC)) is reported as 106 % of control, the T/C [1] is reported as 101 % of control and 110 % of control and the T/C [2] is reported as 120 % of control. For the same molecule, the T/C [3] was 153 % of control.
In the case of `CC/C(=C/C(F)(F)C(F)(F)C(F)(F)F)[N+](=O)[O-]`, the T/C [2] is reported as 101 % of control, the T/C [4] is reported as 87 % of control and the T/C [3] is reported as 87 % of control.
With `NNC(=O)c1ccccc1O` the T/C [5] was 100 % of control, the T/C [6] was 95 % of control and the T/C [7] was 95 % of control.
For `Cc1nc(/N=N/c2nc(C)c(C)[nH]2)[nH]c1C`, the T/C [8] was 102 % of control, the T/C [9] was 101 % of control and the T/C [10] was 96 % of control.
With `CN(C)C(=S)S/C=C\C(=O)O` the T/C (dose: 25.0 mg/kg/injection, schedule: Q04DX003 (ip), vehicle: Klucel (hydroxypropylcellulose) (HPC)) was 104 % of control, the T/C (dose: 50.0 mg/kg/injection, schedule: Q04DX003 (ip), vehicle: Klucel (hydroxypropylcellulose) (HPC)) was 96 % of control and the T/C (dose: 100.0 mg/kg/injection, schedule: Q04DX003 (ip), vehicle: Klucel (hydroxypropylcellulose) (HPC)) was 92 % of control. For the same molecule, the T/C (dose: 200.0 mg/kg/injection, schedule: Q04DX003 (ip), vehicle: Klucel (hydroxypropylcellulose) (HPC)) was 113 % of control.
With `O=C(O)C(=O)O.O=C([O-])C(=O)O.O=C([O-])C(=O)O.O=C([O-])C(=O)[O-].[K+].[U]` the T/C (dose: 0.5 mg/kg/injection, schedule: Q01DX009 (ip), vehicle: Klucel (hydroxypropylcellulose) (HPC)) was 98 % of control, the T/C (dose: 1.0 mg/kg/injection, schedule: Q01DX009 (ip), vehicle: Klucel (hydroxypropylcellulose) (HPC)) was 97 % of control and the T/C [11] was 100 % of control. For the same molecule, the T/C [12] was 98 % of control.
In the case of `CCOC(=O)c1ccc(OC(=O)Nc2ccccc2)cc1`, the T/C [5] is reported as 97 % of control, the T/C [6] is reported as 97 % of control and the T/C [7] is reported as 93 % of control and 95 % of control.
In the case of `COCCOC(=O)CCCCC(=O)OCCOC`, the T/C [13] is reported as 118 % of control, the T/C [14] is reported as 106 % of control and the T/C [15] is reported as 114 % of control.
For `O=C(/C=C\c1ccccc1)/C=C/c1ccccc1`, the T/C [7] was 104 % of control, the T/C (dose: 100.0 mg/kg/injection, schedule: Q04DX003 (ip), vehicle: saline with Tween-80) was 102 % of control and the T/C (dose: 200.0 mg/kg/injection, schedule: Q01DX009 (ip), vehicle: saline with Tween-80) was 96 % of control. For the same molecule, the T/C (dose: 200.0 mg/kg/injection, schedule: Q04DX003 (ip), vehicle: saline with Tween-80) was 100 % of control, the T/C (dose: 400.0 mg/kg/injection, schedule: Q01DX009 (ip), vehicle: saline with Tween-80) was 92 % of control and the T/C (dose: 400.0 mg/kg/injection, schedule: Q04DX003 (ip), vehicle: saline with Tween-80) was 102 % of control.
For `O=c1oc(-c2ccc3c(c2)OCO3)nc2ccccc12`, the T/C [3] was 98 % of control, the T/C [8] was 99 % of control and the T/C [9] was 91 % of control.
For `CCCCCCCC(=O)CC(C)C`, the T/C [8] was 106 % of control and the T/C [9] was 86 % of control.
For `CCN(CC)c1nc(N(CC)CC)nc(N(CC)CC)n1`, the T/C [5] was 89 % of control and the T/C [6] was 94 % of control.
`CCCN(C(=O)CCl)c1ccccc1` was tested, and the T/C (dose: 3.13 mg/kg/injection, schedule: Q01DX009 (ip), vehicle: Klucel (hydroxypropylcellulose) (HPC)) was 94 % of control, the T/C [1] was 91 % of control and the T/C [2] was 92 % of control.
In the case of `O=C(Cl)C1(Br)CC2c3ccccc3C1([N+](=O)[O-])c1ccccc12` (centres undefined), the T/C [2] is reported as 100 % of control, the T/C [4] is reported as 97 % of control and the T/C [3] is reported as 97 % of control. For the same molecule, the T/C [8] was 91 % of control and the T/C [9] was 88 % of control.
With `O=C(O)CCC1CCC(=O)OC1=O` (centres undefined) the T/C [13] was 112 % of control, the T/C [14] was 113 % of control and the T/C [15] was 113 % of control.
For `COC(=O)c1ccc(C(=O)OC)[n+]([O-])c1`, the T/C (dose: 100.0 mg/kg/injection, schedule: Q04DX003 (ip), vehicle: saline) was 105 % of control, the T/C (dose: 200.0 mg/kg/injection, schedule: Q04DX003 (ip), vehicle: saline) was 112 % of control and the T/C (dose: 400.0 mg/kg/injection, schedule: Q04DX003 (ip), vehicle: saline) was 105 % of control.
`O=C(N/N=C\c1cc(Br)cc(Br)c1O)N/N=C/c1cc(Br)cc(Br)c1O` was tested, and the T/C (dose: 6.25 mg/kg/injection, schedule: Q01DX009 (ip), vehicle: saline with Tween-80) was 108 % of control and 120 % of control, the T/C (dose: 6.25 mg/kg/injection, schedule: Q01DX009 (ip), vehicle: sodium bicarbonate) was 96 % of control and the T/C (dose: 12.5 mg/kg/injection, schedule: Q01DX009 (ip), vehicle: saline with Tween-80) was 104 % of control. For the same molecule, the T/C (dose: 12.5 mg/kg/injection, schedule: Q01DX009 (ip), vehicle: sodium bicarbonate) was 107 % of control, the T/C (dose: 25.0 mg/kg/injection, schedule: Q01DX009 (ip), vehicle: sodium bicarbonate) was 107 % of control and the T/C (dose: 50.0 mg/kg/injection, schedule: Q01DX009 (ip), vehicle: sodium bicarbonate) was 107 % of control. The T/C (dose: 100.0 mg/kg/injection, schedule: Q01DX009 (ip), vehicle: sodium bicarbonate) was 118 % of control and the T/C (dose: 200.0 mg/kg/injection, schedule: Q01DX009 (ip), vehicle: sodium bicarbonate) was 122 % of control.
`CC1=CCC2(C)C(=O)CC3(C)C(CCC4C5(C)CCC(=O)C(C)(C)C5CCC43C)C2C1C` (centres undefined) was tested, and the T/C (dose: 1.75 mg/kg/injection, schedule: Q01DX008 (ip), vehicle: saline) was 100 % of control, the T/C (dose: 3.5 mg/kg/injection, schedule: Q01DX008 (ip), vehicle: saline) was 100 % of control and the T/C (dose: 7.0 mg/kg/injection, schedule: Q01DX008 (ip), vehicle: saline) was 94 % of control. For the same molecule, the T/C (dose: 14.0 mg/kg/injection, schedule: Q01DX008 (ip), vehicle: saline) was 99 % of control.
`COc1cc2c(cc1OC)/C(=N/N)CCC2` was tested, and the T/C (dose: 6.25 mg/kg/injection, schedule: Q01DX009 (ip), vehicle: water) was 99 % of control, the T/C (dose: 12.5 mg/kg/injection, schedule: Q01DX009 (ip), vehicle: water) was 92 % of control and the T/C (dose: 25.0 mg/kg/injection, schedule: Q01DX009 (ip), vehicle: water) was 93 % of control. The T/C (dose: 50.0 mg/kg/injection, schedule: Q01DX009 (ip), vehicle: water) was 97 % of control.
In the case of `[Cl][Ni+2][Cl].[NH-]CCN1CC1`, the T/C (dose: 0.78 mg/kg/injection, schedule: Q01DX009 (ip), vehicle: saline) is reported as 97 % of control, the T/C (dose: 1.56 mg/kg/injection, schedule: Q01DX009 (ip), vehicle: saline) is reported as 97 % of control and the T/C (dose: 3.12 mg/kg/injection, schedule: Q01DX009 (ip), vehicle: saline) is reported as 90 % of control.
For `O=C(Oc1ccc(Cl)cc1Cl)c1ccc([N+](=O)[O-])cc1`, the T/C [4] was 87 % of control and the T/C [8] was 86 % of control.
`COc1cc(NC(N)=O)ccc1Nc1c2ccc(N)cc2nc2cc(N)ccc12` was tested, and the T/C (dose: 0.5 mg/kg/injection, schedule: Q01DX009 (ip), vehicle: saline) was 104 % of control, the T/C [11] was 102 % of control and the T/C [12] was 108 % of control. The T/C (dose: 4.0 mg/kg/injection, schedule: Q01DX009 (ip), vehicle: saline) was 102 % of control, the T/C (dose: 8.0 mg/kg/injection, schedule: Q01DX009 (ip), vehicle: saline) was 102 % of control and the T/C (dose: 16.0 mg/kg/injection, schedule: Q01DX009 (ip), vehicle: saline) was 104 % of control.
With `CCOC(=O)CN1CCC2CC1c1c([nH]c3ccccc13)C2c1cc2c(cc1OC)N(C)C1C(O)(C(=O)OC)C(OC(C)=O)C3(CC)C=CCN4CCC21C43` (centres undefined) the T/C (dose: 0.06 mg/kg/injection, schedule: Q01DX009 (ip), vehicle: other) was 96 % of control, the T/C (dose: 0.13 mg/kg/injection, schedule: Q01DX009 (ip), vehicle: other) was 108 % of control and the T/C (dose: 0.5 mg/kg/injection, schedule: Q01DX009 (ip), vehicle: other) was 96 % of control. The T/C (dose: 1.0 mg/kg/injection, schedule: Q01DX009 (ip), vehicle: other) was 104 % of control and the T/C (dose: 2.0 mg/kg/injection, schedule: Q01DX009 (ip), vehicle: other) was 117 % of control.
With `CC(=O)Nc1cccc(OCCCOc2cccc(C(=N)N)c2)c1` the T/C (dose: 9.37 mg/kg/injection, schedule: Q04DX003 (ip), vehicle: Klucel (hydroxypropylcellulose) (HPC)) was 102 % of control, the T/C (dose: 18.75 mg/kg/injection, schedule: Q04DX003 (ip), vehicle: Klucel (hydroxypropylcellulose) (HPC)) was 100 % of control and the T/C (dose: 37.5 mg/kg/injection, schedule: Q04DX003 (ip), vehicle: Klucel (hydroxypropylcellulose) (HPC)) was 97 % of control. The T/C [3] was 102 % of control and the T/C [8] was 86 % of control.
`CC(=O)N(C(C)=O)C1=C(c2ccccc2)C(=O)c2ccccc21` was tested, and the T/C [8] was 100 % of control, the T/C [9] was 97 % of control and the T/C [10] was 97 % of control.

— PubChem BioAssay AID192 (DTP/NCI, 2004)
